What follows are compounds tested on human FXN (assay: EC50 assay: FXN mRNA expression by qRT-PCR in GM15850 cells after 48 hrs compound treatment). Conditions: Homo sapiens, 48 hrs incubation, hFXN expression normalized to hGAPDH (qRT-PCR), read-out: EC50 WT (nM, 48 hr).
Type: cell-based
Protocol: Cell culture: Cells were cultured in RPMI1640 medium+15% FBS. Cells were maintained at a density between 2e5/mL and 1e6/mL. Cells were centrifuged, resuspended in fresh medium, counted and plated at 150,000 cells per well in 100 uL in a non-coated, flat bottom tissue culture plate.
Compound treatment: 10 mM stock solution of FA GeneTAC was diluted 1:10 in DMSO followed by a 1:100 dilution in growth medium. Working solution was then further diluted to 10× desired final concentration of 150 nM. Compound was then diluted at a 1:3 ratio into growth medium containing 0.01% DMSO. 5-point, 3-fold dose response curve was generated. 11 μL of 1OX compound was added to wells containing 100 μL cell suspension of GM15850. 11 μL growth medium containing 0.01% DMSO was added to all wells not treated with FA GeneTAC. Cells were allowed to incubate for 48 hrs prior to cell lysis using guanidine isothiocyanate solution.
RNA isolation: Total RNA was isolated and purified in 384-well column filter plates using chaotropic salt.
qRT-PCR: qRT-PCR reactions were assembled using AgPath-ID reagents (Thermo Fisher) using 6 uL mastermix and 4 μL RNA. qRT-PCR TaqMan primer probe sets against human FXN (Assay ID Hs01075496_m1) and human GAPDH (Assay ID Hs00266705_g1) were used to measure the intended targets. qRT-PCR was run on the ThermoFisher QuantStudio 6 PRO instrument using the manufacturer's recommended cycling conditions.
Data analysis: qPCR data was analyzed using Thermo Fisher Design and Analysis software. Data was exported to Excel and hFXN expression was normalized to hGAPDH expression
A<100 nM; B is 100 nM to 500 nM; C>500 nM.

| SMILES | EC50 |
| --- | --- |
| Cc1sc2c(c1C)C(c1ccc(Cl)cc1)=N[C@@H](CC(=O)NC1CCN(CCOCCOCCOCCN3CCN(CCN4CCN(CCOCCNC(=O)CCNC(=O)c5nc(NC(=O)CCNC(=O)c6cc(NC(=O)c7nc(NC(=O)CCNC(=O)c8cc(NC(=O)c9nccn9C)cn8C)cn7C)cn6C)cn5C)CC4)CC3)CC1)c1nnc(C)n1-2 [Compound 29] | > 500 nM |
| Cc1sc2c(c1C)C(c1ccc(Cl)cc1)=N[C@@H](CC(=O)NC1CCN(CCOCCOCCOCCN3CCN(CC4CCN(CCOCCNC(=O)CCNC(=O)c5nc(NC(=O)CCNC(=O)c6cc(NC(=O)c7nc(NC(=O)CCNC(=O)c8cc(NC(=O)c9nccn9C)cn8C)cn7C)cn6C)cn5C)CC4)CC3)CC1)c1nnc(C)n1-2 [Compound 33] | > 500 nM |
| COc1ccc2c(c1)C(c1ccc(Cl)cc1)=N[C@@H](CC(=O)NC1CCN(CCOCCOCCOCCN3CCN(CC4CCN(CCOCCNC(=O)CCNC(=O)c5nc(NC(=O)CCNC(=O)c6cc(NC(=O)c7nc(NC(=O)CCNC(=O)c8cc(NC(=O)c9nccn9C)cn8C)cn7C)cn6C)cn5C)CC4)CC3)CC1)c1nnc(C)n1-2 [Compound 34] | > 500 nM |
| Cc1sc2c(c1C)C(c1ccc(Cl)cc1)=N[C@@H](CC(=O)NC1CCN(CCOCCN3CCC(CN4CCN(CCOCCOCCOCCNC(=O)CCNC(=O)c5nc(NC(=O)CCNC(=O)c6cc(NC(=O)c7nc(NC(=O)CCNC(=O)c8cc(NC(=O)c9nccn9C)cn8C)cn7C)cn6C)cn5C)CC4)CC3)CC1)c1nnc(C)n1-2 [Compound 35] | 100 to 500 nM |
| Cc1sc2c(c1C)C(c1ccc(Cl)cc1)=N[C@H](CC(=O)NC1CCN(CCOCCOCCOCCOCCOCCC(=O)NCCCN(C)CCCNC(=O)CCNC(=O)c3nc(NC(=O)CCNC(=O)c4cc(NC(=O)c5nc(NC(=O)CCNC(=O)c6cc(NC(=O)c7nccn7C)cn6C)cn5C)cn4C)cn3C)CC1)c1nnc(C)n1-2 [Compound 39] | > 500 nM |
| Cc1sc2c(c1C)C(c1ccc(Cl)cc1)=N[C@@H](CC(=O)N1CCC(C#CC#CCNCCOCCOCCOCCOCCOCCNC(=O)CCNC(=O)c3nc(NC(=O)CCNC(=O)c4cc(NC(=O)c5nc(NC(=O)CCNC(=O)c6cc(NC(=O)c7nccn7C)cn6C)cn5C)cn4C)cn3C)CC1)c1nnc(C)n1-2 [Compound 40] | < 100 nM |
| COc1ccc2c(c1)C(c1ccc(Cl)cc1)=N[C@@H](CC(=O)N1CCC(C#CC#CCNCCOCCOCCOCCOCCOCCNC(=O)CCNC(=O)c3nc(NC(=O)CCNC(=O)c4cc(NC(=O)c5nc(NC(=O)CCNC(=O)c6cc(NC(=O)c7nccn7C)cn6C)cn5C)cn4C)cn3C)CC1)c1nnc(C)n1-2 [Compound 41] | < 100 nM |
| Cc1sc2c(c1C)C(c1ccc(Cl)cc1)=N[C@@H](CC(=O)Nc1ccc(C#CC#CCN(CCN3CCN(C)CC3)C(=O)COCCOCCOCCOCCOCCNC(=O)CCNC(=O)c3nc(NC(=O)CCNC(=O)c4cc(NC(=O)c5nc(NC(=O)CCNC(=O)c6cc(NC(=O)c7nccn7C)cn6C)cn5C)cn4C)cn3C)cc1)c1nnc(C)n1-2 [Compound 42] | < 100 nM |
| Cc1sc2c(c1C)C(c1ccc(Cl)cc1)=N[C@@H](CC(=O)Nc1ccc(C#CC#CCN(CCOCCOCCOCCOCCOCCNC(=O)CCNC(=O)c3nc(NC(=O)CCNC(=O)c4cc(NC(=O)c5nc(NC(=O)CCNC(=O)c6cc(NC(=O)c7nccn7C)cn6C)cn5C)cn4C)cn3C)CCC3CCN(C)CC3)cc1)c1nnc(C)n1-2 [Compound 43] | 100 to 500 nM |
| COc1ccc2c(c1)C(c1ccc(Cl)cc1)=N[C@@H](CC(=O)N1CCN(CC3CCN(CCOCCOCCOCCOCCOCCOCCOCCNC(=O)CCNC(=O)c4nc(NC(=O)CCNC(=O)c5cc(NC(=O)c6nc(NC(=O)CCNC(=O)c7cc(NC(=O)c8nccn8C)cn7C)cn6C)cn5C)cn4C)CC3)CC1)c1nnc(C)n1-2 [Compound 46] | > 500 nM |
| Cc1cc(F)cc(C)c1Oc1ccc(C(C)(C)O)cc1-c1cn(C)c(=O)c2[nH]c(C(=O)NC3CCN(CCOCCOCCOCCOCCOCCOCCOCCOCCNC(=O)CCNC(=O)c4nc(NC(=O)CCNC(=O)c5cc(NC(=O)c6nc(NC(=O)CCNC(=O)c7cc(NC(=O)c8nccn8C)cn7C)cn6C)cn5C)cn4C)CC3)cc12 [Compound 47] | < 100 nM |
| CC(=O)Nc1c(F)cc(C(=O)NC2CCN(CCOCCOCCOCCOCCOCCOCCOCCOCCNC(=O)CCNC(=O)c3nc(NC(=O)CCNC(=O)c4cc(NC(=O)c5nc(NC(=O)CCNC(=O)c6cc(NC(=O)c7nccn7C)cn6C)cn5C)cn4C)cn3C)CC2)cc1O[C@@H](C)c1ccccc1 [Compound 48] | > 500 nM |
| Cc1cc(F)cc(C)c1Oc1ccc(C(C)(C)O)cc1-c1cn(C)c(=O)c2[nH]c(C(=O)NCCOCCOCCOCCOCCOCCOCCOCCOCCNC(=O)CCNC(=O)c3nc(NC(=O)CCNC(=O)c4cc(NC(=O)c5nc(NC(=O)CCNC(=O)c6cc(NC(=O)c7nccn7C)cn6C)cn5C)cn4C)cn3C)cc12 [Compound 50] | < 100 nM |
| Cc1sc2c(c1C)C(c1ccc(Cl)cc1)=N[C@@H](CC(=O)N1CCC(N3CCN(CCOCCOCCOCCOCCOCCOCCNC(=O)CCNC(=O)c4nc(NC(=O)CCNC(=O)c5cc(NC(=O)c6nc(NC(=O)CCNC(=O)c7cc(NC(=O)c8nccn8C)cn7C)cn6C)cn5C)cn4C)CC3)CC1)c1nnc(C)n1-2 [Compound 51] | 100 to 500 nM |
| COc1ccc2c(c1)C(c1ccc(Cl)cc1)=N[C@@H](CC(=O)N1CCC(N3CCN(CCOCCOCCOCCOCCOCCOCCNC(=O)CCNC(=O)c4nc(NC(=O)CCNC(=O)c5cc(NC(=O)c6nc(NC(=O)CCNC(=O)c7cc(NC(=O)c8nccn8C)cn7C)cn6C)cn5C)cn4C)CC3)CC1)c1nnc(C)n1-2 [Compound 52] | > 500 nM |
| Cc1sc2c(c1C)C(c1ccc(Cl)cc1)=N[C@@H](CC(=O)N1CCN(C3CCN(CCOCCOCCOCCOCCOCCOCCNC(=O)CCNC(=O)c4nc(NC(=O)CCNC(=O)c5cc(NC(=O)c6nc(NC(=O)CCNC(=O)c7cc(NC(=O)c8nccn8C)cn7C)cn6C)cn5C)cn4C)CC3)CC1)c1nnc(C)n1-2 [Compound 53] | 100 to 500 nM |
| COc1ccc2c(c1)C(c1ccc(Cl)cc1)=N[C@@H](CC(=O)N1CCN(C3CCN(CCOCCOCCOCCOCCOCCOCCNC(=O)CCNC(=O)c4nc(NC(=O)CCNC(=O)c5cc(NC(=O)c6nc(NC(=O)CCNC(=O)c7cc(NC(=O)c8nccn8C)cn7C)cn6C)cn5C)cn4C)CC3)CC1)c1nnc(C)n1-2 [Compound 54] | > 500 nM |
| Cc1sc2c(c1C)C(c1ccc(Cl)cc1)=N[C@@H](CC(=O)N1CCC(CN3CCN(CCOCCOCCOCCOCCOCCOCCOCCNC(=O)CCNC(=O)c4nc(NC(=O)CCNC(=O)c5cc(NC(=O)c6nc(NC(=O)CCNC(=O)c7cc(NC(=O)c8nccn8C)cn7C)cn6C)cn5C)cn4C)CC3)CC1)c1nnc(C)n1-2 [Compound 55] | 100 to 500 nM |
| COc1ccc2c(c1)C(c1ccc(Cl)cc1)=N[C@@H](CC(=O)N1CCC(CN3CCN(CCOCCOCCOCCOCCOCCOCCOCCNC(=O)CCNC(=O)c4nc(NC(=O)CCNC(=O)c5cc(NC(=O)c6nc(NC(=O)CCNC(=O)c7cc(NC(=O)c8nccn8C)cn7C)cn6C)cn5C)cn4C)CC3)CC1)c1nnc(C)n1-2 [Compound 56] | 100 to 500 nM |
| Cc1sc2c(c1C)C(c1ccc(Cl)cc1)=N[C@@H](CC(=O)N1CCC(CN3CCN(CCOCCOCCOCCOCCOCCOCCNC(=O)CCNC(=O)c4nc(NC(=O)CCNC(=O)C5=CC(NC(=O)c6nc(NC(=O)CCNC(=O)c7cc(NC(=O)c8nccn8C)cn7C)cn6C)CN5C)cn4C)CC3)CC1)c1nnc(C)n1-2 (stereo partly drawn) [Compound 57] | 100 to 500 nM |
| COCCOCCOCCOCCOCCOCCOCCOCCOCCOCCOCCOCCOCCOCCOCCOCCC(=O)N(CC#CC#Cc1ccc(NC(=O)C[C@@H]2N=C(c3ccc(Cl)cc3)c3c(sc(C)c3C)-n3c(C)nnc32)cc1)CCOCCOCCOCCOCCOCCNC(=O)CCNC(=O)c1nc(NC(=O)CCNC(=O)c2cc(NC(=O)c3nc(NC(=O)CCNC(=O)c4cc(NC(=O)c5nccn5C)cn4C)cn3C)cn2C)cn1C [Compound 58] | 100 to 500 nM |

From US20240124491A1, “METHODS AND COMPOUNDS FOR TREATING FRIEDREICH'S ATAXIA” (Design Therapeutics, Inc., priority 2021, published 2024)
